Results on eight compounds are retold here after patent publication US8722687B2, “Imidazo [1,2-A]pyridine derivatives as FGFR kinase inhibitors for use in therapy” (Astex Therapeutics Ltd, priority 2009, dated 2014).

Test [1] deals with parental wild-type Ba/F3 cells. Briefly: Ba/F3 (WT) cell proliferation assay (Alamar Blue). The format is cell-based, murine. The note with it: read-out: BaF3 WT prolif. The method, then:
Ba/F3-TEL-FGFR3 & Ba/F3 (WT) Cell Proliferation Assays
Stably transfected Ba/F3-TEL-FGFR3 cells were plated out into black 96-well tissue culture plates with clear bottoms in RPMI medium containing 10% FBS and 0.25 mg/ml G418 at a density of 5×10^3 cells/well (200 μl per well). The parental wild-type Ba/F3 cells (DSMZ no.: ACC 300) were plated out into black 96-well tissue culture plates with clear bottoms in RPMI medium containing 10% FBS and 2 ng/ml mouse IL-3 (R&D Systems) at a density of 2.5×10^3 cells/well (200 μl per well). Plates were placed in an incubator overnight before adding the compounds the following day. Dilutions of compounds were made in DMSO starting at 10 mM and were diluted into the wells to give a final DMSO concentration of 0.1% in assay. Compounds were left on the cells for 72 hours before the plates were removed from the incubator and 20 μl of Alamar Blue™ (Biosource) was added to each well. Plates were placed in the incubator for 4-6 hours before reading plates at 535 nm (excitation)/590 nm (emission) on a Fusion plate reader (Packard). Where inhibition is high an IC50 can be determined.

The next test deals with T1, Ba/F3-Flt3 cells (Homo sapiens, UniProt P36888, cells depend on it, form not given).
T1 construct: Ba/F3-flt3 − IL3 pIC50; other: without IL3
T1 sequence (P36888 1-993): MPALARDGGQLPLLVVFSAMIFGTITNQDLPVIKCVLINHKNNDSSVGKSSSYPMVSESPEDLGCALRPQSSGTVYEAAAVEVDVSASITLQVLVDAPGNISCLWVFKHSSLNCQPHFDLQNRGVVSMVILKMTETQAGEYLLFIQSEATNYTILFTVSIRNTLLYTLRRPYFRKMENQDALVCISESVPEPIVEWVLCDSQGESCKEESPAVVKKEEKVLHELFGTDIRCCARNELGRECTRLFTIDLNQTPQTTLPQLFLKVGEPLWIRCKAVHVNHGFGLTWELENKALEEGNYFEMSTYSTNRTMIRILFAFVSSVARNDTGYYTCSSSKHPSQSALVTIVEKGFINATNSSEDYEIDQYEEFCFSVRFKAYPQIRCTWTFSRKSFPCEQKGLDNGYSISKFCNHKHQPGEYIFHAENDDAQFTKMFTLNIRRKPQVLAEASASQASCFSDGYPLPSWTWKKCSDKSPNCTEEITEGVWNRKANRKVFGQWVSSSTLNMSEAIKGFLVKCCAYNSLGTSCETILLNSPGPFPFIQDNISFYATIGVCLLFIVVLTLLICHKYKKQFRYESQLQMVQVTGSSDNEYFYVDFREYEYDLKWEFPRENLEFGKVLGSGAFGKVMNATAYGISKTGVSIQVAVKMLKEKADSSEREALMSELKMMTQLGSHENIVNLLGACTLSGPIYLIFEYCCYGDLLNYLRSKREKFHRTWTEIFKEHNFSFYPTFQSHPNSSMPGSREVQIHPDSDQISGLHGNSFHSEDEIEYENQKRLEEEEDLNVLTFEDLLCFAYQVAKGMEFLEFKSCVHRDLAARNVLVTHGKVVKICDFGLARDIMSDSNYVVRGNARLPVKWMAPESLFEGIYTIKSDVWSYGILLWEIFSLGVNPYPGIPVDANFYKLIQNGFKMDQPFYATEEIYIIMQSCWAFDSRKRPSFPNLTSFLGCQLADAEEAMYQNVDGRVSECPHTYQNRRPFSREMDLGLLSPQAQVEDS
Briefly: Ba/F3-Flt3 assay (Alamar Blue). The format is cell-based, murine. The settings on record: without IL3. In short, it runs like this:
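Ba/F3-Flt3 cells in phenol red-free RPMI-1640 with 10% FCS were plated, and compound dilutions were added 24 h later at 0.2% DMSO final. After 24 h at 37 °C, Alamar Blue was added for 4 h and fluorescence was read (ex 544/em 590 nm) to derive IC50. The IL3 condition added 10 ng/ml murine IL3 during compound exposure.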

A further test addresses T2, FGFR3 (Homo sapiens, UniProt P22607).
T2 construct: purchased Upstate
Briefly: FGFR3 in vitro kinase inhibitory activity assay. The test is classed as biochemical. The settings on record: read-out: FGFR3 IC50(μM) or % I.

T2 sequence (P22607 23-806): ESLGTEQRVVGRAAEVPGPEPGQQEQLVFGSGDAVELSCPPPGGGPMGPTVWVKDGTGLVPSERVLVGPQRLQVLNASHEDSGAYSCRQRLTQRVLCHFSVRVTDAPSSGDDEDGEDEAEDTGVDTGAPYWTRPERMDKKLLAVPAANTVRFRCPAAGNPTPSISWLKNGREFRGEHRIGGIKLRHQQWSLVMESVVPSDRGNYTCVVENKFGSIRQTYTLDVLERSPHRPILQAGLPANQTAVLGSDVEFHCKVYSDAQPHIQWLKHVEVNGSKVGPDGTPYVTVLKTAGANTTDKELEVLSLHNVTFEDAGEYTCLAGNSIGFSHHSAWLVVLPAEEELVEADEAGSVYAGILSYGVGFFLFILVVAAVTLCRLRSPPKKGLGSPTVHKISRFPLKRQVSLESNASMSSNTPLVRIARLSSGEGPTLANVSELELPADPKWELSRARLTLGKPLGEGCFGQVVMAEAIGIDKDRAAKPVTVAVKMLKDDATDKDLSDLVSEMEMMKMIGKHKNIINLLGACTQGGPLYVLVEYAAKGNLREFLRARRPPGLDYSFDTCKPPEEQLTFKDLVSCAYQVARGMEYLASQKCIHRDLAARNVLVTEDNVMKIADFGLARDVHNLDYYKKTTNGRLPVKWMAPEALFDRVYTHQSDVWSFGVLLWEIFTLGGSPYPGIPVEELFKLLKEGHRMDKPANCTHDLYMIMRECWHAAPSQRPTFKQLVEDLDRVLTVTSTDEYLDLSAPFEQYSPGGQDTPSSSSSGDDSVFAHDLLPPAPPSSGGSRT

For `CC(C)Oc1cc(NC(=O)NCC(F)(F)F)cc(-c2cnc3cc(OCCO)ccn23)c1` [Compound F-17, 1-{3-[7-(2-Hydroxy-ethoxy)-imidazo[1,2-a]pyridin-3-yl]-5-isopropoxy-phenyl}-3-(2,2,2-trifluoro-ethyl)-urea], the inhibition at 10 µM in test [1] (Mus musculus, BaF3, 72 h) came out at 0%. For the same compound, the “Ba/F3-flt3 − IL3 pIC50” value on Ba/F3-Flt3 cells was less than 5. Besides, the IC50 at FGFR3 amounted to 0.017 µM.

As for `CC(C)Oc1cc(NC(=O)NCC(F)(F)F)cc(-c2cnc3cc(OCCCO)ccn23)c1` [Compound F-18, 1-{3-[7-(3-Hydroxy-propoxy)-imidazo[1,2-a]pyridin-3-yl]-5-isopropoxy-phenyl}-3-(2,2,2-trifluoro-ethyl)-urea], in test [1] (Mus musculus, BaF3, 72 h), the inhibition at 10 µM was 54%. Also, the “Ba/F3-flt3 − IL3 pIC50” value on Ba/F3-Flt3 cells is given as less than 5. Besides, the IC50 on FGFR3 worked out at 0.02 µM.

Turning to `CC(C)Oc1cc(NC(=O)NCC(F)(F)F)cc(-c2cnc3cc(-c4nncs4)ccn23)c1.Cl` [Compound F-19, 1-[3-Isopropoxy-5-(7-[1,3,4]thiadiazol-2-yl-imidazo[1,2-a]pyridin-3-yl)-phenyl]-3-(2,2,2-trifluoro-ethyl)-urea], in test [1] (Mus musculus, BaF3, 72 h, % at 1.00 μM), the inhibition at 1 µM is 0%. Besides, on Ba/F3-Flt3 cells, the “Ba/F3-flt3 − IL3 pIC50” value was less than 5. Moreover, the IC50 at FGFR3 is 0.00247 µM.

For `Cc1nnc(-c2ccn3c(-c4cc(NC(=O)NCC(F)(F)F)cc(OC(C)C)c4)cnc3c2)s1.Cl` [Compound F-20, 1-{3-Isopropoxy-5-[7-(5-methyl-[1,3,4]thiadiazol-2-yl)-imidazo[1,2-a]pyridin-3-yl]-phenyl}-3-(2,2,2-trifluoro-ethyl)-urea], in test [1] (Mus musculus, BaF3, 72 h), the inhibition at 3 µM worked out at 0%. Besides, at Ba/F3-Flt3 cells, the “Ba/F3-flt3 − IL3 pIC50” value is less than 5. Also, the IC50 on FGFR3 worked out at 0.00096 µM.

As for `CCNC(=O)Nc1cc(OC(C)C)cc(-c2cnc3cc(-c4nnc(C)s4)ccn23)c1` [Compound F-23, 1-Ethyl-3-{3-isopropoxy-5-[7-(5-methyl-[1,3,4]thiadiazol-2-yl)-imidazo[1,2-a]pyridin-3-yl]-phenyl}-urea], in test [1] (Mus musculus, BaF3, 72 h), the inhibition at 10 µM was found to be 5%. Moreover, on Ba/F3-Flt3 cells, the “Ba/F3-flt3 − IL3 pIC50” value is less than 5. In addition, the IC50 on FGFR3 was 0.004 µM.

As to `CC(C)Oc1cc(NC(=O)NCC(F)(F)F)cc(-c2cnc3cc(-c4nccc(C(C)(C)CO)n4)ccn23)c1` [Compound F-27, 1-(3-{7-[4-(2-Hydroxy-1,1-dimethylethyl)-pyrimidin-2-yl]-imidazo[1,2-a]pyridin-3-yl}-5-isopropoxy-phenyl)-3-(2,2,2-trifluoro-ethyl)-urea], in test [1] (Mus musculus, BaF3, 72 h), the inhibition at 3 µM came to 50%. The “Ba/F3-flt3 − IL3 pIC50” value on Ba/F3-Flt3 cells is less than 5. For the same compound, on FGFR3, the IC50 is 0.042 µM.

In the case of `Cc1cn(-c2ccn3c(-c4cc(NC(=O)NCC(F)(F)F)cc(OC(C)C)c4)cnc3c2)cn1` [Compound F-28, 1-{3-Isopropoxy-5-[7-(4-methylimidazol-1-yl)-imidazo[1,2-a]pyridin-3-yl]-phenyl}-3-(2,2,2-trifluoro-ethyl)-urea], the inhibition at 10 µM in test [1] (Mus musculus, BaF3, 72 h) turned out to be 73%. Also, the “Ba/F3-flt3 − IL3 pIC50” value on Ba/F3-Flt3 cells is less than 5. For the same compound, the IC50 on FGFR3 was determined as 0.0016 µM.

Turning to `CC(C)Oc1cc(NC(=O)NCC(F)(F)F)cc(-c2cnc3cc(-c4nccc(C(C)C)n4)ccn23)c1` [Compound F-29, 1-{3-Isopropoxy-5-[7-(4-isopropyl-pyrimidin-2-yl)-imidazo[1,2-a]pyridin-3-yl]-phenyl}-3-(2,2,2-trifluoroethyl)-urea], the IC50 is 3980 nM in test [1] (BaF3, 72 hours, with mouse IL-3) and 0.092 µM on FGFR3. Moreover, at Ba/F3-Flt3 cells, the “Ba/F3-flt3 − IL3 pIC50” value was less than 5.
